By IC50 is commonly meant the midpoint of a concentration-inhibition curve.

The target of the assay is PAFR (Homo sapiens, UniProt P25105). Description: PAF Binding Assay (PAFR binding).
Chain of PAFR (P25105 whole entry): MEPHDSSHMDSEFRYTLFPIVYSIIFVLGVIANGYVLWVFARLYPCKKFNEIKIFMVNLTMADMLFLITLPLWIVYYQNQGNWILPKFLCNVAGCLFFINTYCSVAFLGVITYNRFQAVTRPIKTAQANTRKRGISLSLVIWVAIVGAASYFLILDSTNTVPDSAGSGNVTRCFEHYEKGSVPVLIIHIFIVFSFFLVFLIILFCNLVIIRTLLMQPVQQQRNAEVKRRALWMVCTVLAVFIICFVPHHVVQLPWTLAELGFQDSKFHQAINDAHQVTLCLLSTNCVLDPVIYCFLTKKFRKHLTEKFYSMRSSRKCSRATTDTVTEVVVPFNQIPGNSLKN
Compound `O=S(=O)(N[C@H]1CCC[C@@H](n2cnnc2)C1)c1cc(Br)cc(C(F)(F)F)c1` [Compound 2Mi, 3-bromo-N-[(1S,3R)-3-(4H-1,2,4-triazol-4-yl)cyclohexyl]-5-(trifluoromethyl)benzenesulfonamide] registered an IC50 of 0.165 µM. Under `O=S(=O)(N[C@H]1CCC[C@@H](n2cnnc2)C1)c1ccc(-c2noc(C3CC3)n2)cc1` [Compound 2Ml, 4-(5-cyclopropyl-1,2,4-oxadiazol-3-yl)-N-[(1S,3R)-3-(4H-1,2,4-triazol-4-yl)cyclohexyl]benzenesulfonamide] stands 0.243 µM; under `CCc1ccc(S(=O)(=O)N[C@H]2CCC[C@@H](n3cnnc3)C2)cc1-c1ccccc1` [Compound 2Mm, 6-ethyl-N-[(1S,3R)-3-(4H-1,2,4-triazol-4-yl)cyclohexyl]biphenyl-3-sulfonamide], 0.026 µM; under `CCc1ccc(S(=O)(=O)N[C@H]2CCC[C@@H](n3cnnc3)C2)cc1-c1cccnc1OC` [Compound 2Mn, 4-ethyl-3-(2-methoxypyridin-3-yl)-N-[(1S,3R)-3-(4H-1,2,4-triazol-4-yl)cyclohexyl]benzenesulfonamide], 0.063 µM.

`O=S(=O)(N[C@H]1CCC[C@@H](n2cnnc2)C1)c1cc(F)c(-c2ccc(OC(F)(F)F)cc2)cc1F` [Compound 2Mo, 2,5-difluoro-N-[(1S,3R)-3-(4H-1,2,4-triazol-4-yl)cyclohexyl]-4′-(trifluoromethoxy)biphenyl-4-sulfonamide]: the IC50 is 0.012 µM. Under `O=S(=O)(N[C@H]1CCC[C@@H](n2cnnc2)C1)c1ccc(OC(F)(F)F)cc1` [Compound 2Mu, N-[(1S,3R)-3-(4H-1,2,4-triazol-4-yl)cyclohexyl]-4-(trifluoromethoxy)benzenesulfonamide] stands 0.164 µM; under `O=S(=O)(N[C@H]1CCC[C@@H](n2cnnc2)C1)c1ccc(Oc2ccccc2)cc1` [Compound 2Mv, 4-phenoxy-N-[(1S,3R)-3-(4H-1,2,4-triazol-4-yl)cyclohexyl]benzenesulfonamide], 0.051 µM. With `CCCCOc1ccc(S(=O)(=O)N[C@H]2CCC[C@@H](n3cnnc3)C2)cc1` [Compound 2Mw, 4-butoxy-N-[(1S,3R)-3-(4H-1,2,4-triazol-4-yl)cyclohexyl]benzenesulfonamide], the IC50 came to 0.0083 µM. Compound `COc1ccc(S(=O)(=O)N[C@H]2CCC[C@@H](n3cnnc3)C2)cc1OC` [Compound 2Mx, 3,4-dimethoxy-N-[(1S,3R)-3-(4H-1,2,4-triazol-4-yl)cyclohexyl]benzenesulfonamide] had an IC50 of 0.6 µM. The result for `COc1ccc(S(=O)(=O)N[C@H]2CCC[C@@H](n3cnnc3)C2)c(OC)c1` [Compound 2My, 2,4-dimethoxy-N-[(1S,3R)-3-(4H-1,2,4-triazol-4-yl)cyclohexyl]benzenesulfonamide] reads 0.21 µM.

`CC(C)Oc1ccc(S(=O)(=O)N[C@H]2CCC[C@@H](n3cnnc3)C2)cc1` [Compound 2Mz, 4-isopropoxy-N-[(1S,3R)-3-(4H-1,2,4-triazol-4-yl)cyclohexyl]benzenesulfonamide] returned an IC50 of 0.025 µM. Under `Cc1nncn1[C@@H]1CCC[C@H](NS(=O)(=O)c2ccc(OCCCC(F)(F)F)cc2)C1` [Compound 2Nac, N-[(1S,3R)-3-(3-methyl-4H-1,2,4-triazol-4-yl)cyclohexyl]-4-(4,4,4-trifluorobutoxy)benzenesulfonamide] stands 0.0047 µM. Under `Cc1nncn1[C@@H]1CCC[C@H](NS(=O)(=O)c2ccc(OCCCCF)cc2)C1` [Compound 2Nad, 4-(4-fluorobutoxy)-N-[(1S,3R)-3-(3-methyl-4H-1,2,4-triazol-4-yl)cyclohexyl]benzenesulfonamide] stands 0.011 µM; under `CCCCOc1cc(F)c(S(=O)(=O)N[C@H]2CCC[C@@H](n3cnnc3C)C2)cc1F` [Compound 2Nae, 4-butoxy-2,5-difluoro-N-[(1S,3R)-3-(3-methyl-4H-1,2,4-triazol-4-yl)cyclohexyl]benzenesulfonamide], 0.0054 µM; under `Cc1nncn1[C@@H]1CCC[C@H](NS(=O)(=O)c2ccc(-c3noc(C4CC4)n3)cc2)C1` [Compound 2Nl, 4-(5-cyclopropyl-1,2,4-oxadiazol-3-yl)-N-[(1S,3R)-3-(3-methyl-4H-1,2,4-triazol-4-yl)cyclohexyl]benzenesulfonamide], 0.0096 µM. Under `Cc1nncn1[C@@H]1CCC[C@H](NS(=O)(=O)c2ccc(C(C)(C)C)cc2)C1` [Compound 2Np, 4-tert-butyl-N-[(1S,3R)-3-(3-methyl-4H-1,2,4-triazol-4-yl)cyclohexyl]benzenesulfonamide] stands 0.051 µM; under `Cc1nncn1[C@@H]1CCC[C@H](NS(=O)(=O)c2ccc(C(C)C)cc2)C1` [Compound 2Nq, 4-isopropyl-N-[(1S,3R)-3-(3-methyl-4H-1,2,4-triazol-4-yl)cyclohexyl]benzenesulfonamide], 0.028 µM.

`Cc1nncn1[C@@H]1CCC[C@H](NS(=O)(=O)c2ccc(-n3nccc3C3CC3)cc2)C1` [Compound 2Nr, 4-(5-cyclopropyl-1H-pyrazol-1-yl)-N-[(1S,3R)-3-(3-methyl-4H-1,2,4-triazol-4-yl)cyclohexyl]benzenesulfonamide] yielded an IC50 of 0.056 µM. The result for `Cc1nncn1[C@@H]1CCC[C@H](NS(=O)(=O)c2ccc(-n3ccc(C4CC4)n3)cc2)C1` [Compound 2Ns, 4-(3-cyclopropyl-1H-pyrazol-1-yl)-N-[(1S,3R)-3-(3-methyl-4H-1,2,4-triazol-4-yl)cyclohexyl]benzenesulfonamide] reads 0.03 µM. Under `Cc1cn(-c2ccc(S(=O)(=O)N[C@H]3CCC[C@@H](n4cnnc4C)C3)cc2)cn1` [Compound 2Nt, 4-(4-methyl-1H-imidazol-1-yl)-N-[(1S,3R)-3-(3-methyl-4H-1,2,4-triazol-4-yl)cyclohexyl]benzenesulfonamide] stands 0.87 µM; under `CCCCOc1ccc(S(=O)(=O)N[C@H]2CCC[C@@H](n3cnnc3C)C2)cc1` [Compound 2Nw, 4-butoxy-N-[(1S,3R)-3-(3-methyl-4H-1,2,4-triazol-4-yl)cyclohexyl]benzenesulfonamide], 0.0028 µM; under `CCCCOc1ccc(S(=O)(=O)N[C@H]2CCC[C@@H](n3cnnc3C3CC3)C2)cc1F` [Compound 2Oaf, 4-butoxy-N-[(1S,3R)-3-(3-cyclopropyl-4H-1,2,4-triazol-4-yl)cyclohexyl]-3-fluorobenzenesulfonamide], 0.0017 µM. Under `CCCCOc1ccc(S(=O)(=O)N[C@H]2CCC[C@@H](n3cnnc3C3CC3)C2)c(F)c1` [Compound 2Oag, 4-butoxy-N-[(1S,3R)-3-(3-cyclopropyl-4H-1,2,4-triazol-4-yl)cyclohexyl]-2-fluorobenzenesulfonamide] stands 0.0072 µM; under `CCCCOc1ccc(S(=O)(=O)N[C@H]2CCC[C@@H](n3cnnc3C3CC3)C2)cc1` [Compound 2Ow, 4-butoxy-N-[(1S,3R)-3-(3-cyclopropyl-4H-1,2,4-triazol-4-yl)cyclohexyl]benzenesulfonamide], 0.0041 µM.

As for `CCc1cccc(S(=O)(=O)N[C@@H]2C[C@H](n3cnnc3)CC(F)(F)C2)c1` [Compound 2Pk, N-[(1R,5S)-3,3-difluoro-5-(4H-1,2,4-triazol-4-yl)cyclohexyl]-3-ethylbenzenesulfonamide], the 50% inhibitory concentration (IC50) is 0.37 µM.

For `Cc1nncn1[C@H]1C[C@@H](NS(=O)(=O)c2ccc(OCCCCF)cc2)CC(F)(F)C1` [Compound 2Qad, N-[(1R,5S)-3,3-difluoro-5-(3-methyl-4H-1,2,4-triazol-4-yl)cyclohexyl]-4-(4-fluorobutoxy)-benzenesulfonamide], the IC50 turned out to be 0.0088 µM.

Compound `Cc1nncn1[C@H]1C[C@@H](NS(=O)(=O)c2ccc(-c3noc(C4CC4)n3)cc2)CC(F)(F)C1` [Compound 2Ql, 4-(5-cyclopropyl-1,2,4-oxadiazol-3-yl)-N-[(1R,5S)-3,3-difluoro-5-(3-methyl-4H-1,2,4-triazol-4-yl)cyclohexyl]benzenesulfonamide] registered an IC50 of 0.0082 µM. The result for `CCCCOc1ccc(S(=O)(=O)N[C@@H]2C[C@H](n3cnnc3C)CC(F)(F)C2)cc1` [Compound 2Qw, 4-butoxy-N-[(1R,5S)-3,3-difluoro-5-(3-methyl-4H-1,2,4-triazol-4-yl)cyclohexyl]benzenesulfonamide] reads 0.0042 µM.

Regarding `O=S(=O)(N[C@H]1CCC[C@@H](n2cnnc2)C1)c1c(C2CC2)cc(-c2noc(C3CC3)n2)cc1C1CC1` [Compound 2Ra, 2,6-dicyclopropyl-4-(5-cyclopropyl-1,2,4-oxadiazol-3-yl)-N-[(1S,3R)-3-(4H-1,2,4-triazol-4-yl)cyclohexyl]benzenesulfonamide], the IC50 was 0.0024 µM. The result for `O=S(=O)(N[C@H]1CCC[C@@H](n2cnnc2)C1)c1c(C2CC2)cc(-c2noc(C3CCC3)n2)cc1C1CC1` [Compound 2Rb, 4-(5-cyclobutyl-1,2,4-oxadiazol-3-yl)-2,6-dicyclopropyl-N-[(1S,3R)-3-(4H-1,2,4-triazol-4-yl)cyclohexyl]benzenesulfonamide] reads 0.0001 µM. The result for `O=S(=O)(N[C@H]1CCC[C@@H](n2cnnc2)C1)c1c(C2CC2)cc(-c2noc(C3CC(F)(F)C3)n2)cc1C1CC1` [Compound 2Rc, 2,6-dicyclopropyl-4-[5-(3,3-difluorocyclobutyl)-1,2,4-oxadiazol-3-yl]-N-[(1S,3R)-3-(4H-1,2,4-triazol-4-yl)cyclohexyl]benzenesulfonamide] reads 0.0029 µM; that for `O=S(=O)(N[C@H]1CCC[C@@H](n2cnnc2)C1)c1c(F)cc(-c2noc(C3CC3)n2)cc1C1CC1` [Compound 2Sa, 2-cyclopropyl-4-(5-cyclopropyl-1,2,4-oxadiazol-3-yl)-6-fluoro-N-[(1S,3R)-3-(4H-1,2,4-triazol-4-yl)cyclohexyl]benzenesulfonamide], 0.0086 µM; that for `O=S(=O)(N[C@H]1CCC[C@@H](n2cnnc2)C1)c1c(F)cc(-c2noc(C3CCC3)n2)cc1C1CC1` [Compound 2Sb, 4-(5-cyclobutyl-1,2,4-oxadiazol-3-yl)-2-cyclopropyl-6-fluoro-N-[(1S,3R)-3-(4H-1,2,4-triazol-4-yl)cyclohexyl]benzenesulfonamide], 0.0026 µM. The result for `CCc1cc(-c2ccc(OC(F)(F)F)cc2)ccc1S(=O)(=O)N[C@H]1CCC[C@@H](n2cnnc2)C1` [Compound 2b, 3-ethyl-N-[(1S,3R)-3-(4H-1,2,4-triazol-4-yl)cyclohexyl]-4′-(trifluoromethoxy)biphenyl-4-sulfonamide] reads 0.0036 µM.

Source of the values: US9029377B2, “Platelet-activating factor receptor antagonists” (Merck Sharp & Dohme Corp., priority 2009, dated 2015).
